Measurements reported in patent publication US9420790B2, “Molecules that induce disease resistance and improve growth in plants” (The Regents of the University of California, priority 2013, dated 2016).
“Also recorded” adds a separate entry of the source.

Experiments:
[1] = tested on: Arabidopsis roots; experiment: Root length of Col-0 seedlings on 1/2 MS plates containing synthetic elicitor; assay type: in vivo, Arabidopsis thaliana; conditions: for enhancement of root length / root growth: HTC at 1 μM only, DCA and INA at various tested concentrations; for root growth at higher concentrations: higher doses, range tested 1 to 100 μM
Protocol: FIG. 5. Relative root length of Col-0 plants grown on synthetic elicitors. Col-0 seedlings were plated in square petri dishes on ½ MS medium containing 1, 10, 25, 50, 75 or 100 μM of HTC, DCA, INA, or the respective controls (solvent only). A. Roots of Col-0 seedlings grown on 1 uM HTC or control (0.01% DMSO) medium 14 days after germination. B. Average percent Col-0 root length grown on synthetic elicitors compared to Col-0 grown on control. Root length was measured at day 3, 5, 7, 11, and 14. Results are expressed as percentages of the average root length on the respective synthetic elicitor treatments compared to their controls. The average, standard error, and Student's t-test (p<0.05) were calculated from these values. Significant differences between synthetic elicitor-treated and control-treated plants are marked by a star above the corresponding data point. Y-axis represents relative root growth in the presence of synthetic elicitor. CSE: concentration of synthetic elicitor; dpg: days post germination.
We compared the ability of other synthetic elicitors to enhance growth, and performed root growth assays with INA, DCA, and HTC (FIG. 5B). Each synthetic elicitor was added to the solid media plates at concentrations ranging from 1 to 100 μM. The plates were placed upright in a growth chamber, and root lengths were measured at 3 d-intervals. To merge data sets, root length was expressed as a percentage of their value relative to the average of the mock (control) for that data set. Normalizing each root length to its control allowed all replicates to be combined together to calculate averages, standard errors, and perform statistical tests (FIG. 5B).

[2] = tested on: Col-0 seedlings; experiment: Trypan blue staining for phytotoxicity (cell death) after saturation treatment; assay type: in vivo, Arabidopsis thaliana; conditions: for seedlings with cell death (trypan blue staining): treated for 24 h at 300 μM
Protocol: (§1) B. Trypan blue staining of CaBP22^−333 : :GUS seedlings incubated for 24 h in medium containing compounds at the indicated concentrations.
(§2) To quantify the bioactivity of HTC, we performed various assays with one week-old CaBP22^−333::GUS seedlings submerged in liquid growth medium containing HTC or mock-solution (saturation treatment). […] To examine if HTC induces phytotoxicity, we stained Col-0 seedlings after saturation treatment with trypan blue.
(§3) To determine which substituents or moieties of the HTC molecule are critical for its defense-inducing activity, seven commercially available HTC analogs were analyzed (FIG. 3A). We compared the ability of these compounds to induce GUS expression in saturation treated CaBP22^−333::GUS Arabidopsis seedlings to that of DCA and HTC. […] We also used trypan blue staining to examine HTC-analog-induced phytotoxicity.

[3] = tested on: Peronospora isolate Noco2; experiment: Noco2 spore inhibition assay in soil-grown seedlings; assay type: in vivo, Hyaloperonospora arabidopsidis; conditions: for resistance to Noco2: 100 μM sprayed 1 h prior to pathogen challenge; for suppression of Noco2 spore formation / resistance to Noco2: 7 dpi; for level of protection / defense-inducing activity against Noco2 / concentration giving significant protection against Noco2: dose-response; for level of protection / defense-inducing activity against Noco2: three-week old Col-0 (FIG. 3B); for concentration giving significant protection against Noco2: three-week old Col-0, infected 24 h after treatment, 7 dpi (FIG. 3B); for HTC-triggered immunity to Noco2: 100 μM
Protocol: FIG. 2. Kinetic analysis of chemically-induced disease resistance. Experiments were conducted with three-week-old soil-grown Col-0 seedlings sprayed with 100 μM HTC, DCA, INA, or mock solution (1% DMSO) at the indicated times prior to being sprayed with 2×10^4 mL^−1Noco2 spores (2 ml per pot). Peronospora (Hyeloperonospora arabidopsidis) spores were counted 7 dpi (days post-infection). Mean and SE values were calculated from a minimum of three biological replicates and the average of those is shown above.
FIG. 3. Structure-activity analysis of HTC analogs. A. Chemical structures of DCA, HTC and tested HTC analogs. Chiral centers of the HTC skeleton are indicated by “1*” and “2*” in HTC. B. Noco2 spore inhibition assay. Three-week-old soil-grown Col-0 seedlings were spray-infected 24 h after treating with varying concentrations of each synthetic elicitor and then assayed at 7 dpi for spore growth. 100% inhibition=0 spores. […] The average of those three replicates is shown. Significant differences of compound-treated compared to mock-treated seedlings determined by Student's t-tests (p<0.05) are marked by colored four pointed stars.
(§4) FIG. 4. Analysis of HTC activity in defense mutant plants. A & B. RT-PCR analysis of CaBP22 transcript levels in Col-0 (wild-type) and mutant backgrounds 24 h after spraying 2-week-old seedlings with mock-solution (1% DMSO), 100 μM DCA, or HTC. RT-PCRs with ACTIN are shown as loading controls. […] C. Analysis of HTC activity in Col-0 or nahG background. Experiments were conducted with three-week-old soil-grown Col-0 or nahG seedlings sprayed with 100 μM HTC, 100 μM DCA, or mock-solution (1% DMSO) 24 h prior to infection with 2×10^4 virulent Noco2 spores ml^−1 (2 ml per pot). Spores were counted at 7 dpi. Mean and SE values were calculated from a minimum of three biological replicates and their averages of are shown.
We next tested whether HTC could induce pathogen resistance in soil-grown plants. […] To determine if HTC differs from other synthetic elicitors in the kinetics of defense induction, Col-0 seedlings were sprayed with 100 μM of INA, DCA, HTC, or mock, 1 h, 3 h, 1 d, 3 d, or 6 d prior to pathogen challenge.
We performed a dose-response analysis of inhibition of Noco2 spore development in three-week old Col-0 plants using the HTC analogs (FIG. 3B).
We also compared the biological activity of s-HTC to that of p-HTC by spraying a concentration gradient of both preparations on soil-grown Col-0 seedlings 24 h prior to challenge with Noco2.

[4] = tested on: Hyaloperonospora arabidopsidis (Peronospora); conditions: Arabidopsis; cited from earlier work
[5] = tested on: Pseudomonas syringae; conditions: Arabidopsis; cited from earlier work
[6] = tested on: CaBP22 transcript levels; experiment: RT-PCR analysis of CaBP22 transcript levels in Col-0 and defense mutants; assay type: in vivo, Arabidopsis thaliana; conditions: for ability to induce CaBP22 expression: transgenic nahG line; for ability to induce CaBP22 expression / CaBP22 transcript accumulation: 100 μM
Protocol: as §4
To establish the mode-of-action of HTC, we performed reverse transcription (RT)-PCRs examining transcript levels of the defense marker gene CaBP22 in Col-0 and a set of mutant lines representing various defense signaling mechanisms. […] In the transgenic nahG line, which is compromised in the accumulation of salicylic acid (SA), the ability of HTC to induce CaBP22 expression was blocked, while that of DCA was not affected (FIGS. 4A and B).

[7] = tested on: Tomato cv. Moneymaker seedlings; experiment: Root length of plate-grown tomato seedlings; assay type: in vivo, Solanum lycopersicum; conditions: 1 μM
Protocol: (§5) FIG. 7. Relative root length and FW of tomato seedlings and shoots. Tomato cv. Moneymaker seedlings treated with HTC compared to seedlings treated with control (DMSO 0.01%). A. Moneymaker seedlings were plated in square petri dishes on ½ MS medium containing HTC. Root length was measured at day 2, 4, 6, and 8. Results are expressed as percentages of the average root length on 1 μM HTC or control. The average, standard error, and Student's t-test (p<0.05) were calculated from these values. Each time point represents at least 89 distinct root length measurements from at least three biological replicates. Y-axis represents percent of root growth in the presence of synthetic elicitor compared to controls. B. Moneymaker seeds (five seeds per pot with a minimum of 21 pots) were sown on soil drenched with 20 ml of the indicated concentrations of HTC or their respective control. Fresh weight (FW) of the above-ground plant tissues was measured at day 14. Results are expressed as percentages of the average weight of HTC treatments compared to those of the controls. The standard error and Student's t-test (p<0.01) were calculated from at least three biological replicates and the average is shown above. Significant differences between synthetic elicitor-treated and control-treated plants are marked by stars above the corresponding data points. […]

[8] = tested on: Col-0 seedlings; experiment: Fresh weight of aerial portions of soil-drenched Col-0 seedlings; assay type: in vivo, Arabidopsis thaliana; conditions: 1-100 μM soil drench, day 14
Protocol: FIG. 6. Relative weight of aerial portions of synthetic elicitor treated Col-0 seedlings compared to control (DMSO) treated seedlings. Col-0 seeds (15-20 seeds per pot) were sown on soil drenched with 20 mL of the indicated concentrations of HTC, INA, DCA, or the respective mock solutions. Fresh weight (FW) of the above-ground plant tissues was measured at day 14. Results are expressed as percentages of the average FW of the respective synthetic elicitor treated plants compared to that of mock-treated controls. The standard error and Student's t-test (p<0.05) were calculated from at least three biological replicates and averages are shown. Significant differences between synthetic elicitor-treated and control-treated plants are marked by a star above the corresponding data point. Y-axis represents percent of FW in the presence of synthetic elicitor compared to controls.
To determine whether the synthetic […] could increase the aerial weight of Arabidopsis, soil-sown-seedlings were drenched with synthetic elicitor in water at day 0 (FIG. 6). After 14 days, aerial portions of plants were cut off and their fresh weight measured. […] HTC thus has a hormesis-like effect in Arabidopsis roots, but generally increases the aerial fresh weight of Arabidopsis at the concentrations tested.

[9] = tested on: CaBP22^−333::GUS expression; experiment: CaBP22-333::GUS reporter assay, liquid-grown seedlings (saturation treatment); assay type: in vivo, Arabidopsis thaliana
Protocol: as §1, §2, §3

[10] = tested on: Tomato cv. Moneymaker seedlings; experiment: Root drench assay, aerial fresh weight of soil-grown tomato; assay type: in vivo, Solanum lycopersicum; conditions: 10 μM single soil drench, day 14
Protocol: as §5

[11] = Col-0, 100 μM sprayed 24 h prior to infection
[12] = nahG, 100 μM sprayed 24 h prior to infection
[13] = Col-0, 24 h after spraying 100 μM
[14] = wrky70-3 mutant, 24 h after spraying 100 μM

Structure (SMILES)	enhancement of root length / root growth [1]	root growth at higher concentrations [1]	seedlings with cell death (trypan blue staining) [2]	resistance to Noco2 [3]	suppression of Noco2 spore formation / resistance to Noco2 [3, 11]	level of protection / defense-inducing activity against Noco2 [3]	concentration giving significant protection against Noco2 [3]	suppression of Noco2 spore formation / resistance to Noco2 [3, 12]	CaBP22 transcript levels [6, 13]	ability to induce CaBP22 expression [6]	CaBP22 transcript levels [6, 14]	also measured
Nc1c(Cl)cc(Cl)cc1C(=O)O [DCA, 3-5-dicholoroanthranlilic acid, reference compound]	enhanced Arabidopsis root growth	strongly inhibited	100%	full resistance	induced resistance; also recorded: significantly suppresses	highest protection	10 µM	induced resistance; also recorded: significantly suppresses	induced an increase	not affected	not	disease resistance [4]: fast, strong and transient disease resistance; disease resistance [5]: fast, strong and transient disease resistance
O=C(O)C1CSC(c2cc(Br)ccc2O)N1 (stereo not drawn) [HTC, 2-(5-bromo-2-hydroxy-phenyl)-thiazolidine-4-carboxylic acid]	enhanced the root length	reduced root growth; also recorded: strongly inhibited	100%		able to do so; also recorded: significantly suppresses	highest protection; also recorded: most potent of the tested analogs	10 µM	did not observe significant reduction and not	induced an increase	blocked	not	change in root length ([7]; all analyzed time-points): significant increase in root length; root length relative to mock-treated plants ([7]; day 6): 136.1%; fresh weight of shoots relative to mock-treated plants [8]: ~120%; root length relative to control plates ([1]; 1 μM): up to 180%; reduction of length of roots ([1]; concentrations above 50 μM): ~80%; cell death (trypan blue staining) ([2]; lower concentrations that resulted in reporter activation (1-100 μM)): No cell death; concentration activating CaBP22-333::GUS expression (as low as) ([9]; within 24 h, one week-old seedlings): 1 µM; HTC-triggered immunity to Noco2 ([3]; 6 dpt): not detectable; HTC-triggered immunity to Noco2 ([3]; 3 days post treatment (dpt)): reduced; efficacy of s-HTC versus p-HTC in reducing Noco2 spore counts ([3]; 20, 50, 100, and 200 μM sprayed on Col-0 24 h prior to challenge): No significant difference; concentration giving significantly reduced numbers of Noco2 spores (as low as) ([3]; Col-0 sprayed prior to infection, spores 7 dpi): 10 µM; fresh weight of shoots relative to mock-treated plants [10]: 128.5%; CaBP22 transcript accumulation ([6]; pad4-1 mutant): reduced; CaBP22 transcript accumulation ([6]; sid2-2 mutant): reduced; CaBP22 transcript accumulation ([6]; wrky72-2 mutant): full HTC-induced CaBP22 transcript accumulation
O=C(O)C1CSCN1 (stereo not drawn) [T4CA, 4-carboxy-4-thiazolidinyl, reference compound]						did not result in significant immunity						
O=C(O)C1CSC(c2ccccc2O)N1 (stereo not drawn) [CMP140, 2-(2-hydroxy-phenyl)-thiazolidine-4-carboxilic acid]						less efficient defense inducer compared to HTC	at least 100 uM					efficiency of GUS induction among HTC analogs [9]: most efficient HTC analog
O=C(O)c1cc(Cl)nc(Cl)c1 [INA, reference compound]	enhanced Arabidopsis root growth	not		full resistance								
